# Laboratory results reported in ChEMBL document CHEMBL5360525, “Design, synthesis and anti-tumor efficacy of novel phenyl thiazole/triazole derivatives as selective TrkA inhibitors” (Bioorg Med Chem, 2022).
# The source made the active and inactive calls. The calls are words filed in the database; no cut-off is given here.
# How the values were obtained:
# A549 = assay: Antiproliferative activity against human A549 cells assessed as reduction in cell viability for 72 hrs by MTT assay; settings: A549, 72 h
# KM12 [1] = assay: Antiproliferative activity against human KM12 cells assessed as reduction in cell viability for 72 hrs by MTT assay; settings: KM12, 72 h
# KM12 [2] = assay: Inhibition of colony formation in human KM12 cells assessed as decrease in colony count at 75 nM incubated for 72 hrs by crystal violet staining based assay; type: functional, cell-based
# [3] = target: NT-3 growth factor receptor (Homo sapiens, UniProt Q16288); assay: Inhibition of TRKC (unknown origin) incubated for 1 hr by mobility shift assay
# [4] = target: High affinity nerve growth factor receptor (Homo sapiens, UniProt P04629); assay: Inhibition of TRKA (unknown origin) incubated for 1 hr by mobility shift assay
# [5] = target: BDNF/NT-3 growth factors receptor (Homo sapiens, UniProt Q16620); assay: Inhibition of TRKB (unknown origin) incubated for 1 hr by mobility shift assay
# Sequence of BDNF/NT-3 growth factors receptor (Q16620 whole entry): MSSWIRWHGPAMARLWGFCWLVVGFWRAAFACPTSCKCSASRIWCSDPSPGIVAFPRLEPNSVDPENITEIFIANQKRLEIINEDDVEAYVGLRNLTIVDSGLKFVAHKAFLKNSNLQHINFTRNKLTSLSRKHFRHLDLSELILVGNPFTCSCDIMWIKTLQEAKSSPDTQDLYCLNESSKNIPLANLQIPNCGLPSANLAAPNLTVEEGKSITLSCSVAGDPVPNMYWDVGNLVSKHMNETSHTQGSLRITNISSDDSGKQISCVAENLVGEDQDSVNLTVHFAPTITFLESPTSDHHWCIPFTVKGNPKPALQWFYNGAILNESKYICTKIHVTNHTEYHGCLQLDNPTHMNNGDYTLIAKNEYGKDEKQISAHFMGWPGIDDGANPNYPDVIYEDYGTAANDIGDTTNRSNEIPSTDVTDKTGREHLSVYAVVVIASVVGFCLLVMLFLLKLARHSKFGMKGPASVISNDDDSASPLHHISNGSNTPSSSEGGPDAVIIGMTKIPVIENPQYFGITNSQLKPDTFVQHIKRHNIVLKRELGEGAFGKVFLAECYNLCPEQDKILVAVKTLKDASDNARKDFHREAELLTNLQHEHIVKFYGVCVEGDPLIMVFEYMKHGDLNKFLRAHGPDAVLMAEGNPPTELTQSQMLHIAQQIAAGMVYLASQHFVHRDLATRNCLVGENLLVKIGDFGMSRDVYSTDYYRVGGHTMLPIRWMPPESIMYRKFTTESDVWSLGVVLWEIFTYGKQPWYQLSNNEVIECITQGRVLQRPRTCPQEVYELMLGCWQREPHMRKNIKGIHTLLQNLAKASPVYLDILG
# Sequence of High affinity nerve growth factor receptor (P04629 whole entry): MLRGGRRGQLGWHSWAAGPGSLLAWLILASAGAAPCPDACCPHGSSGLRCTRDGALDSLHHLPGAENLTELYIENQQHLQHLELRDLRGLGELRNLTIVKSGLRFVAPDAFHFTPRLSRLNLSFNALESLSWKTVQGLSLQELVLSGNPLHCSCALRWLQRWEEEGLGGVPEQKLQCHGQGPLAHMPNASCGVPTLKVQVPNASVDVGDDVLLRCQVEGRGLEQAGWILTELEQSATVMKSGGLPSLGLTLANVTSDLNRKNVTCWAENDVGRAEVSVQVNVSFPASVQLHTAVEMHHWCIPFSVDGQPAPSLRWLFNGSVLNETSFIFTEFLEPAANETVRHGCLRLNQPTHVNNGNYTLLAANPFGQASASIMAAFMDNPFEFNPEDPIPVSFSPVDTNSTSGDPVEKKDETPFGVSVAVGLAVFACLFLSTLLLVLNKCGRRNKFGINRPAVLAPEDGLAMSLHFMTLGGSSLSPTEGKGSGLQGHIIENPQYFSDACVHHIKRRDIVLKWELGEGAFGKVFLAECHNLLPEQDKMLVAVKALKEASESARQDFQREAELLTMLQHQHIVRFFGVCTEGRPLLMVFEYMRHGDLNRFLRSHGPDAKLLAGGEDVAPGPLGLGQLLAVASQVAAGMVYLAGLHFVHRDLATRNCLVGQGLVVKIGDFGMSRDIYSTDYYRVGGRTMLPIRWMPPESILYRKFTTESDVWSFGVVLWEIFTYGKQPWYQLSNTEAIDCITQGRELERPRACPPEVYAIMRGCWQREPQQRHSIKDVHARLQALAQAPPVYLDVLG
# Sequence of NT-3 growth factor receptor (Q16288 whole entry): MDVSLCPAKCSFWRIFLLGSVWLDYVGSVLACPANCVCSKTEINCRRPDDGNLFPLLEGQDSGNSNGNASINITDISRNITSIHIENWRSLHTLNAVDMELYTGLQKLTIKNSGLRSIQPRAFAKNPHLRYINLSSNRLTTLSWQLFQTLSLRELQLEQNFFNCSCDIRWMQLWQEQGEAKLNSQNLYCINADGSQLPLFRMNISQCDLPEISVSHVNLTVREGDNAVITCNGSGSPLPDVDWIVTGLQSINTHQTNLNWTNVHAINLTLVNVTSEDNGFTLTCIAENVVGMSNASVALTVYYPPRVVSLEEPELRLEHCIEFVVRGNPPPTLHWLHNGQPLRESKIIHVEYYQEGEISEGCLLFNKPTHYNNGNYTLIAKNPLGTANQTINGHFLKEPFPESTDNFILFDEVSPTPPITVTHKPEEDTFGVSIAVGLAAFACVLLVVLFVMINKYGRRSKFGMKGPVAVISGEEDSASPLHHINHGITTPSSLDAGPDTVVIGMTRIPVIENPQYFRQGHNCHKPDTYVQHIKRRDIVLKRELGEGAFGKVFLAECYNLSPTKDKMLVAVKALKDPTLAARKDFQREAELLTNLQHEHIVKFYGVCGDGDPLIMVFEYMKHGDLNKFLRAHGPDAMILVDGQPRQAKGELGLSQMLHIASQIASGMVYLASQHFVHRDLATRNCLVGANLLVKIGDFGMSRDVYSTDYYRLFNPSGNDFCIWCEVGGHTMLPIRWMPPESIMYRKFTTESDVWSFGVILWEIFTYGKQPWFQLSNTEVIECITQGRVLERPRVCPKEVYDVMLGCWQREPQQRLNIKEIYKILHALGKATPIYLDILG
SMILES,IC50 (A549) [µM],IC50 [3] [µM],IC50 [4] [µM],IC50 [5] [µM],IC50 (KM12 [1]) [µM],inhibition (KM12 [2])
O=C(Nc1cccc(-n2cc(CNC3CCCC3)nn2)c1)c1cc(F)cc(F)c1,> 10,,,,3.83,
O=C(Nc1cccc(-n2cc(CN3CCS(=O)(=O)CC3)nn2)c1)c1cc(F)cc(F)c1,> 10,,,,12.2,
O=C(Nc1cccc(-n2cc(CNC3CC3)nn2)c1)c1cc(F)cc(F)c1,> 10,,,,5.21,
O=C(Nc1cccc(-n2cc(CN3CCSCC3)nn2)c1)c1cc(F)cc(F)c1,> 10,,,,12.3,
CN1CCN(c2ccc(NCc3cn(-c4cccc(CNc5cc(F)cc(F)c5)c4)nn3)cc2C(=O)N2CCCC2)CC1,> 10,,,,0.95,
CN1CCN(c2ccc(C(=O)Nc3n[nH]c4ccc(Cc5cc(F)cc(F)c5)cc34)c(NC3CCOCC3)c2)CC1,,,,,,Active
CN1CCN(c2ccc(NCc3cn(-c4cccc(NCc5cc(F)cc(F)c5)c4)nn3)cc2C(=O)N2CCOCC2)CC1,> 10,,,,0.63,
CN1CCN(c2ccc(NCc3cn(-c4cccc(CNc5cc(F)cc(F)c5)c4)nn3)cc2C(=O)N(C)C)CC1,> 10,,,,1.71,
O=C(Nc1cccc(-n2cc(CN3CCCC3)nn2)c1)c1cc(F)cc(F)c1,> 10,,,,8.02,
CN(C)c1nc(-c2cccc(NC(=O)c3cc(F)cc(F)c3)c2)cs1,1.21,,,,28.8,
CN1CCN(c2ccc(NCc3cn(-c4cccc(CNc5cc(F)cc(F)c5)c4)nn3)cc2C(=O)N2CCCCC2)CC1,> 10,,,,0.76,
CN(C)Cc1cn(-c2cccc(NC(=O)c3cc(F)cc(F)c3)c2)nn1,> 10,,,,17.5,

# Further compounds by falling IC50 (A549), results first:
IC50 (A549) [µM],IC50 [3] [µM],IC50 [4] [µM],IC50 [5] [µM],SMILES,IC50 (KM12 [1]) [µM],inhibition (KM12 [2])
0.72,,,,CN1CCN(c2nc(-c3cccc(NC(=O)c4cc(F)cc(F)c4)c3)cs2)CC1,14,
0.55,,,,O=C(Nc1cccc(-c2csc(NCCO)n2)c1)c1cc(F)cc(F)c1,17.1,
0.51,> 0.1,> 0.1,> 0.1,O=C(Nc1cccc(-c2csc(N3CCN(CCO)CC3)n2)c1)c1cc(F)cc(F)c1,7.25,
0.39,,,,O=C(Nc1cccc(-c2csc(N3CCC[C@H]3CO)n2)c1)c1cc(F)cc(F)c1,8.16,
0.27,,,,O=C(Nc1cccc(-c2csc(N3CCOCC3)n2)c1)c1cc(F)cc(F)c1,9.63,
0.21,,,,O=C(Nc1cccc(-c2csc(N3CCC(O)CC3)n2)c1)c1cc(F)cc(F)c1,7.57,
0.17,,,,O=C(Nc1cccc(-c2csc(N3CCCC3)n2)c1)c1cc(F)cc(F)c1,16.5,
